Assay results as given in patent US7345089B2, “Microbial method of making equol-containing composition and product made” (Otsuka Pharmaceutical Co., Ltd., priority 1997, dated 2008).

How the values were obtained:
[1] = Determination of urinary excretions of isoflavonoids in perimenopausal women (survey)
Protocol: To accomplish the above object, the inventors first conducted a dietary survey, determination of urinary excretions of isoflavonoids, and a questionnaire survey about menopausal syndrome (unidentified clinical syndrome) in perimenopausal women in a broad geographical area including urban communities.
Furthermore, women with paramenia and those within 5 years of the menopause being taken together as menopausal subjects, a questionnaire survey was conducted using 17 items which are in routine use in the diagnosis of menopausal syndrome [17 items as a modification of Kupperman menopausal index (Kupperman H. S., et al., (1953), J. Clin. Endocrinol. Metabol., 13, 688-703), i.e. 1. hot flushes, 2. perspiration, 3. local sensation of cold, 4. shortness of breath, 5. numbness of limbs, 6. hypesthesia, 7. difficulty in falling asleep, 8. fitful sleep, 9. irritability, 10. nervousness, 11. melancholy, 12. vertigo, nausea, 13. weakness(fatigue), 14. stiff shoulders, pain in joints, muscular pain, 15. headache, 16. palpitation, 17. tingling sensation] and the simplified menopausal index (SMI) was calculated. With subjects with SMI values not less than 20 being taken as a group of high climacteric symptoms and those with SMI values not greater than 19 as a group of low climacteric symptoms, the amount of intake of isoflavonoids and the urinary excretion of isoflavonoids were respectively compared between the groups.

[2] = Urinary excretion of isoflavonoids after single ingestion of soy milk in healthy adult volunteers; conditions: healthy adult volunteers 25-33 years of age
[3] = human, in vivo
[4] = SMI not less than 20 vs SMI not greater than 19, equol p<0.01

## O=c1c(-c2ccc(O)cc2)coc2cc(O)ccc12 [daidzein]
[1]; [4]
  urinary excretions, group of high climacteric symptoms vs group of low climacteric symptoms: no intergroup difference
[1]; female, human, in vivo
  average urinary excretions of isoflavonoids: 19.6 µmol/day
[2]
  urinary excretions after single ingestion of soy milk: increased in a dose-related fashion

## Oc1ccc(C2COc3cc(O)ccc3C2)cc1 (centres unmarked) [equol]
[1]; in vivo
  average excretions of equol (urinary): 11.9 µmol/day
  subjects in whom detected in urine: 46 (51.6%)
  urinary excretions, group of high climacteric symptoms vs group of low climacteric symptoms: significantly low
[3]
  equol in urine when intake of soy milk increased two-fold: not detected

## O=c1c(-c2ccc(O)cc2)coc2cc(O)cc(O)c12 [genistein]
[1]; [4]
  urinary excretions, group of high climacteric symptoms vs group of low climacteric symptoms: no intergroup difference
[1]; of the 95 subjects, number (%)
  subjects in whom detected in urine: detected in all the subjects
[1]; women aged between 40 and 60
  average urinary excretions of isoflavonoids: 10.0 µmol/day
[2]
  urinary excretions after single ingestion of soy milk: increased in a dose-related fashion
